The text below walks through data of US20230313181A1, “HISTIDINE-LYSINE POLYMERS AND METHODS FOR DELIVERING MRNA USING THE SAME” (UNIVERSITY OF MARYLAND, BALTIMORE, priority 2019, published 2023).

Bridges are numbered along the chain shown (N, C = ends). Roman numbers before positions name the chains, in order. Where no end group is shown, it is not given here.

The test system of one series is MDA-MB-231 cells. In words: mRNA transfection with HK associated lipid particles (HK polymer + DOTAP liposomes). The series is classed as cell-based. The note with it: luciferase mRNA. Here is the method: FIGS. 8A and 8B. Comparison of mRNA transfection with DOTAP and several HK polymers. To form HK associated lipid particles, the mRNA (1 μg) was initially mixed with the HK polymer (4 μg) for 30 min and then with the DOTAP liposomes (1 μg) for 30 min. HK polyplexes were prepared as described previously. These complexes were then added to the cells for 24 h before the luciferase activity was measured *, P<0.05; **, P<0.01; ***, P<0.001; […].
Transfection with HK associated lipid particles was done similarly as above with few exceptions. In brief, the HK polymer was mixed initially with mRNA at various ratios for 30 min in Opti-MEM. This was followed by adding the DOTAP cationic liposome (1,2-dioleoyl-3-trimethylam-monium-propane; […]; Roche, Basel, CH) for 30 additional min. The Opti-MEM mixture (50 μl) was then added dropwise to the cells.

Another series deals with mRNA. Description: Heparin displacement assays (gel electrophoresis and Sybr Gold dye intercalation). The class given is physicochemical. The note with it: HK:mRNA 4:1 wt/wt. Here is the method:
FIG. 4. Heparin Displacement Assays. After HK polyplexes were formed (wt:wt; HK:mRNA; 4 μg:1 μg), different concentrations of heparin […] were incubated with these for 30 min. A. Gel Retardation. The HK polyplexes were loaded on the agarose gel (1%), and electrophoresis was carried out and stained with Sybr Gold. B. Fluorescent dye intercalation. After the HK polyplexes were formed and incubated with several concentrations of heparin, the Sybr Gold nucleic acid dye was incubated with the HK polyplexes for 5 mins. Fluorescence was then measured by a microplate fluorimeter (λex=497 nm, λem=520 nm) (SynergyMx, BioTek). *, P<0.05; ***, P<0.001; H3K4b or H2K vs. H3K(+H)4b.
Heparin Displacement Assays. Heparin displacement assays of HK polyplexes were done with the dye intercalation assay and with gel electrophoresis. A fluorescent assay assessed polyplexes of HK polymer and mRNA (4:1 wt/wt ratio; polymer:mRNA) formed in RNAse/DNAase free water (Corning, Manassas, VA). HK polyplexes were prepared as described previously, followed by the addition of diluted Syber Gold. For detection, working dilutions of the polyplexes (1/5 of volume), water (3/5) and Sybr Gold dye (1/5, 0.2×) were incubated for 5 minutes, and fluorescence was measured by a fluorimeter (Ex=497 nm, Em=520 nm) (SynergyMx, BioTek, Winooski, VT). The control sample was prepared with the same amount of mRNA, water, and Sybr Gold dye. For the heparin displacement, instead of water, heparin salt (Sigma-Aldrich, St. Louis, MO) solutions at different concentrations (0.5, 1, 1.5, 2, 3 μg/μl) were used, and the HK polyplexes were incubated at 37° C. for 30 min before addition of Sybr Gold.
Displacement of mRNA from HK polyplexes with heparin was also done with gel electrophoresis. After HK polyplexes were formed, different concentrations of heparin (0.5, 1.0, 1.5, 2.0, 3.0 μg/μl; volume 20 μl) were incubated with these at 37° C. for 30 min. The polyplexes were then loaded on the agarose gel (1%; 10× BlueJuice Gel loading buffer), and electrophoresis was carried out and stained with SG as described above. […]

Series [1] in a line: Acid-base titration of HK polymer solutions. The class given is physicochemical. The note with it: pH titration curves, 5 mg/ml. How it is done: FIG. 2. Titration of different HK peptide solutions. Solutions of polymers (5 mg/ml) (H2K4b, H3K4b, H3K(+H)4b, and H4K4b) were adjusted to pH 3 (initial volume—1 ml) and then […] aliquots of 0.05 N NaOH were stepwise added and the pH measured.
Acid-Base Titration. After polymer solutions (e.g. containing one or more of H2K4b, H3K4b, H3K(+H)4b, and H4K4b) were adjusted to pH 3.0 (5 mg/mil; initial volume—1 mil), aliquots (5 μl) of NaOH (0.05 N) were stepwise added with the pH measured (FiveEasy™ meter; InLab Solids Pro-ISM pH electrode, Mettler Toledo, Columbus, OH). Titration was stopped at about pH 9.0.

The conditions of series [2]: prior studies [34, 35, 45]; cited from earlier work.

“I: KHHHKHHHKHHHHKHHHKKKK-NH2 / II: KHHHKHHHKHHHHKHHHK / III: KHHHKHHHKHHHHKHHHK / IV: KHHHKHHHKHHHHKHHHK (amide I:19-IV:C, I:20-III:C, I:21-II:C) [H3K(+H)4b]”: in the series with MDA-MB-231 cells, the “mRNA transfection compared with DOTAP liposomes (in words)” value was “significantly better carriers of mRNA than the DOTAP liposomes”. Further, in the series on mRNA, the “binding/release of mRNA and polyplex stability on exposure to heparin (in words)” value is “binds more tightly to the mRNA”. Also, the “buffering profile / buffering capacity (in words)” value in series [1] was “minimal differences in their buffering profile”. In addition, in series [2], the “carrier of siRNA (in words)” value was “effective carriers of siRNA”.
